For 8 molecules, TGI results are on record in PubChem BioAssay (NCI).

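Following 48 hours of exposure in 96-well plates, responses at five concentrations were used to interpolate endpoints linearly. The concentration for full growth arrest is given as TGI.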

Among the test systems are HCT-15 colon; 786-0 renal; U251 CNS; HOP-92 NSCLC; RXF 393 renal; A498 renal; SK-MEL-2 melanoma; SNB-19 CNS; CAKI-1 renal; UACC-62 melanoma; NCI/ADR-RES ovarian; SNB-75 CNS; IGROV1 ovarian; SN12C renal; DU-145 prostate; PC-3 prostate; K-562 leukemia; MOLT-4 leukemia.
Common to all, as to assay: NCI-60 cell line screen, 48 h

In the case of `CC(C)C(=O)Cc1ccc2ccccc2n1`, the TGI in the assay on HCT-15 colon, in the assay with 786-0 renal, in the assay with U251 CNS, in the assay with HOP-92 NSCLC, with RXF 393 renal and in the assay on A498 renal was above 100 µM each time. Further, the TGI in the assay on SK-MEL-2 melanoma, in the assay with SNB-19 CNS, in the assay on CAKI-1 renal, with UACC-62 melanoma, in the assay on NCI/ADR-RES ovarian and in the assay with SNB-75 CNS was above 100 µM throughout. The TGI in the assay on IGROV1 ovarian, with SN12C renal, with DU-145 prostate and in the assay with PC-3 prostate was above 100 µM throughout.
`O=C(O)CCC(NC(=O)c1ccc(Nc2nc3ccc(C(F)(F)F)cc3nc2C(=O)O)cc1)C(=O)O` (stereo not given): the TGI in the assay on HCT-15 colon, in the assay with 786-0 renal, in the assay with K-562 leukemia, with U251 CNS, in the assay with HOP-92 NSCLC and in the assay with RXF 393 renal was above 100 µM throughout. For the same molecule, the TGI with A498 renal, with MOLT-4 leukemia, in the assay on SK-MEL-2 melanoma, in the assay on SNB-19 CNS, with UACC-62 melanoma and in the assay on NCI/ADR-RES ovarian was above 100 µM each time. For the same molecule, the TGI in the assay on SNB-75 CNS, with IGROV1 ovarian, in the assay with SN12C renal, with DU-145 prostate and in the assay on PC-3 prostate was above 100 µM throughout.
Regarding `c1ccc(C(NC2=NCCO2)C2CC2)cc1` (stereo not given), the TGI in the assay with HCT-15 colon, in the assay on 786-0 renal, in the assay on U251 CNS, in the assay with HOP-92 NSCLC, in the assay on RXF 393 renal and with A498 renal was above 100 µM throughout. Moreover, the TGI in the assay with MOLT-4 leukemia, in the assay with SK-MEL-2 melanoma, with SNB-19 CNS, with UACC-62 melanoma, in the assay on NCI/ADR-RES ovarian and with SNB-75 CNS was above 100 µM in each case. Further, the TGI in the assay on IGROV1 ovarian, in the assay on SN12C renal, with DU-145 prostate and with PC-3 prostate was above 100 µM in each case.
As for `CCCCCCCCCCCCCCCCOP(=O)([O-])OCC[N+](C)(C)C1CC(C)(C)N(O)C(C)(C)C1`, the TGI in the assay on HCT-15 colon, in the assay on 786-0 renal, in the assay with U251 CNS, with HOP-92 NSCLC, with RXF 393 renal and with A498 renal was above 100 µM in each case. The TGI in the assay on SK-MEL-2 melanoma, with SNB-19 CNS, with CAKI-1 renal, in the assay with UACC-62 melanoma, in the assay with NCI/ADR-RES ovarian and with SNB-75 CNS was above 100 µM throughout. Further, the TGI with DU-145 prostate and with PC-3 prostate was above 100 µM throughout.
Consider `COC(=O)C(=O)C(C(=O)C(=O)Nc1cccc(OC)c1)c1nc2ccc(Cl)cc2[nH]c1=O` (stereo not given), for which the TGI in the assay with HCT-15 colon, in the assay on 786-0 renal, with K-562 leukemia, with U251 CNS, with HOP-92 NSCLC and in the assay on A498 renal was above 100 µM in each case. For the same molecule, the TGI with MOLT-4 leukemia, with SK-MEL-2 melanoma, in the assay with SNB-19 CNS, in the assay with CAKI-1 renal, with UACC-62 melanoma and in the assay on NCI/ADR-RES ovarian was above 100 µM throughout. Moreover, the TGI in the assay on SNB-75 CNS, with IGROV1 ovarian, with SN12C renal, with DU-145 prostate and in the assay on PC-3 prostate was above 100 µM each time.
Regarding `Cc1nc2ccccc2n1Cc1nnc(-c2ccccc2)o1`, the TGI in the assay on HCT-15 colon, in the assay with 786-0 renal, in the assay with K-562 leukemia, in the assay on U251 CNS, in the assay on HOP-92 NSCLC and in the assay on RXF 393 renal was above 100 µM each time. The TGI with A498 renal, with MOLT-4 leukemia, in the assay with SK-MEL-2 melanoma, in the assay on SNB-19 CNS, in the assay on UACC-62 melanoma and in the assay on NCI/ADR-RES ovarian was above 100 µM each time. Also, the TGI in the assay with SNB-75 CNS, in the assay with IGROV1 ovarian, in the assay with SN12C renal, in the assay with DU-145 prostate and in the assay with PC-3 prostate was above 100 µM in each case.
On to `Fc1ccc2c(c1)SC1=Nc3sc4cc(F)ccc4[n+]3CN12`, for which the TGI with HCT-15 colon was above 100 µM; in the assay with 786-0 renal, 47.4 µM; with K-562 leukemia, 43.9 µM; with U251 CNS it was 46.3 µM; in the assay on HOP-92 NSCLC it was 51.6 µM; in the assay on RXF 393 renal it was 86.8 µM. Moreover, the TGI was determined as 33.5 µM in the assay with A498 renal; 55 µM with SK-MEL-2 melanoma; 38.4 µM in the assay with SNB-19 CNS; 39.3 µM with CAKI-1 renal; 33.1 µM in the assay on UACC-62 melanoma; 63.6 µM in the assay on NCI/ADR-RES ovarian. The TGI in the assay with SNB-75 CNS was 36.8 µM; with IGROV1 ovarian it was 30.6 µM; with SN12C renal, 51.2 µM; in the assay on DU-145 prostate it was above 100 µM; in the assay on PC-3 prostate, above 100 µM.
As for `CS(=O)(=O)CCC1CCC(=O)O1` (stereo not given), the TGI in the assay with HCT-15 colon, with 786-0 renal, with K-562 leukemia, in the assay with U251 CNS, in the assay with HOP-92 NSCLC and with RXF 393 renal was above 100 µM in each case. Also, the TGI in the assay on A498 renal, with MOLT-4 leukemia, in the assay on SNB-19 CNS, in the assay with CAKI-1 renal, in the assay with NCI/ADR-RES ovarian and with SNB-75 CNS was above 100 µM in each case. Also, the TGI in the assay with IGROV1 ovarian, with SN12C renal, in the assay on DU-145 prostate and in the assay on PC-3 prostate was above 100 µM in each case.
